Assay results published in patent US11548900B2, “Oxazino-quinazoline and oxazino-quinoline type compound, preparation method and uses thereof” (BEIJING SCITECH-MQ PHARMACEUTICALS LIMITED, priority 2018, dated 2023).

Legend:
HER2 kinase = HER2 kinase (Homo sapiens (Human), UniProt P04626); test: Inhibition of HER2 kinase activity (ULight-labeled PolyGT substrate); format: biochemical; conditions: HER2 kinase 10 nM, ATP 10 μM, 2 hours
Outline: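 HER2 kinase at 10 nM with 10 μM ATP and 100 nM ULight-PolyGT, 5 min enzyme–compound preincubation, then 2 h reaction at room temperature in the dark. Compounds at 11 3-fold concentrations, 2.5 μM top to 0.042 nM, 1% DMSO, duplicates. TR-FRET 665/615 ratio; IC50 from inhibition versus DMSO and no-compound controls.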

BT474 cells = test: Inhibition of cell proliferation, BT474 (CCK-8, 72 h); format: cell-based
Outline: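 BT474 and HCC827 seeded at 10,000 and 3000 cells/well respectively, cultured overnight, then exposed to 10-point 3-fold compound dilutions (top stock 10 mM; 0.25% DMSO final) for 72 h. Viability by CCK-8, OD450; survival normalised to untreated and cell-free blanks, IC50 from curve fit.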

HCC827 cells = test: Inhibition of cell proliferation, HCC827 (CCK-8, 72 h); format: cell-based; conditions: 72 h incubation
Protocol: The assay for the inhibition of cell proliferation by small molecular compounds was carried out using the method as follows:
1. 600 μL pancreatin was added to a T75 cell culture flask, which was digested in a 37° C. incubator for about 1 min before 5 mL of DMEM complete culture solution was added, blew evenly, transferred to a 15 mL centrifuge tube, and centrifuged at 1000 rpm for 4 min;
2. The supernatant was removed and 5 mL DMEM complete culture solution was added, blew evenly, and 10 μL cell suspension was taken and mixed with 10 μL 0.4% Trypan Blue, and counted using a cell counter;
3. BT474 and HCC827 cell lines were seeded in 96-well plates at a cell density of 10,000 and 3000 cells/well/80 μL, respectively, and cultured overnight. Only sterile water was added to the 36 wells on the periphery of the 96-well plate without adding cells, and only the 60 wells in the center of the 96-well plate were used for cell assays and controls;
4. Dilution of compounds: the compounds were diluted with a 3-fold dilution to make 10 concentrations in total with an initial concentration of 10 mM;
5. 20 μL of different compounds with different concentrations were added to each well, and 20 μL of complete culture solution was added to the remaining wells. The final concentration of DMSO in each well is 0.25%;
6. After 72 h of incubation, 10 μL CCK-8 reagent was added to each well, and incubated at 37° C. for 1-2 h; and the OD value was read at 450 nm;
7. Cell survival rate (%)=[(As−Ab)/(Ac−Ab)]*100%
As: Assay well (medium containing cell, CCK-8, compound)
Ac: Control well (medium containing cell, CCK-8)
Ab: Blank well (CCK-8, medium without cell and compound)
8. The value was imported into Graphpad Prism5 software for the calculation of IC50s (compound concentration at which 50% maximum survival rate is observed).

EGFR kinase = EGFR kinase (Homo sapiens (Human), UniProt P00533); test: Inhibition of EGFR kinase activity (ULight-labeled JAK-1 (Tyr1023) peptide substrate); format: biochemical; conditions: EGFR kinase 0.35 nM, ATP 150 μM, 2 hours
Sequence of EGFR kinase (P00533 25-1210): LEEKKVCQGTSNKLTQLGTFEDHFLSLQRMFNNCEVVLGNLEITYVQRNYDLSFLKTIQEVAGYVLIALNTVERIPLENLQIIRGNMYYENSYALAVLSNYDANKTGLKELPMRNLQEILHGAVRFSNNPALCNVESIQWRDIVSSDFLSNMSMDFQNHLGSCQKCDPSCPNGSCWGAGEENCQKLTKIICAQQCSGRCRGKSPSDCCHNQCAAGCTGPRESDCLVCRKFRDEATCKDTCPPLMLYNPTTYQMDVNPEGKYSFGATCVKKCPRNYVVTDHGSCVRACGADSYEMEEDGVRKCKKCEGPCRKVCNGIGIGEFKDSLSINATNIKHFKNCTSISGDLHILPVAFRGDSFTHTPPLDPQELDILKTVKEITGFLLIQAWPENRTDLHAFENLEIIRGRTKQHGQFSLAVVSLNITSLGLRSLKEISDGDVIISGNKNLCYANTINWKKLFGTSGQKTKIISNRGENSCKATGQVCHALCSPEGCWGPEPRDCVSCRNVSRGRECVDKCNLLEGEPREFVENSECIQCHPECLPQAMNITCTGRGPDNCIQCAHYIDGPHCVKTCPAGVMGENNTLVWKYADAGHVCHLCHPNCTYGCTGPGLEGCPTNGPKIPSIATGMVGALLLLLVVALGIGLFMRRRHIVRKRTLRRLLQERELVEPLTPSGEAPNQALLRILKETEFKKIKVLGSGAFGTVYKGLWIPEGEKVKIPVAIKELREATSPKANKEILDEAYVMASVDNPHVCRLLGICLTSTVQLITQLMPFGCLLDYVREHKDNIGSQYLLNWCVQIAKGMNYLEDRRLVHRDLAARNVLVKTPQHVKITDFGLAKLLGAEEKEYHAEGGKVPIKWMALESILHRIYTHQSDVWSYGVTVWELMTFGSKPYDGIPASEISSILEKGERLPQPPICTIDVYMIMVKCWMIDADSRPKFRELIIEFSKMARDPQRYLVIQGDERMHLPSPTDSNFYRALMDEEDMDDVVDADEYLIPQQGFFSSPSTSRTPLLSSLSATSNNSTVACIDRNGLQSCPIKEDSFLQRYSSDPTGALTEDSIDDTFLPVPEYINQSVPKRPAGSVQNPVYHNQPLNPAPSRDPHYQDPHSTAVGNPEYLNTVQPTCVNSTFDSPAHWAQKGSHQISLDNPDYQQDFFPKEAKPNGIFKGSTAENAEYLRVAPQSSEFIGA
Outline: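 TR-FRET kinase assay: 0.35 nM EGFR, 150 μM ATP, 100 nM substrate, 2 h at room temperature in the dark after 5 min enzyme-compound preincubation, 1% DMSO. Compounds tested as 11-point 3-fold series, 2.5 μM to 0.042 nM final, duplicate; IC50 from 665/615 nm ratio-based inhibition.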

[1] = Homo sapiens, BT-474, 72 h incubation

Sequence of HER2 kinase (P04626 23-1255): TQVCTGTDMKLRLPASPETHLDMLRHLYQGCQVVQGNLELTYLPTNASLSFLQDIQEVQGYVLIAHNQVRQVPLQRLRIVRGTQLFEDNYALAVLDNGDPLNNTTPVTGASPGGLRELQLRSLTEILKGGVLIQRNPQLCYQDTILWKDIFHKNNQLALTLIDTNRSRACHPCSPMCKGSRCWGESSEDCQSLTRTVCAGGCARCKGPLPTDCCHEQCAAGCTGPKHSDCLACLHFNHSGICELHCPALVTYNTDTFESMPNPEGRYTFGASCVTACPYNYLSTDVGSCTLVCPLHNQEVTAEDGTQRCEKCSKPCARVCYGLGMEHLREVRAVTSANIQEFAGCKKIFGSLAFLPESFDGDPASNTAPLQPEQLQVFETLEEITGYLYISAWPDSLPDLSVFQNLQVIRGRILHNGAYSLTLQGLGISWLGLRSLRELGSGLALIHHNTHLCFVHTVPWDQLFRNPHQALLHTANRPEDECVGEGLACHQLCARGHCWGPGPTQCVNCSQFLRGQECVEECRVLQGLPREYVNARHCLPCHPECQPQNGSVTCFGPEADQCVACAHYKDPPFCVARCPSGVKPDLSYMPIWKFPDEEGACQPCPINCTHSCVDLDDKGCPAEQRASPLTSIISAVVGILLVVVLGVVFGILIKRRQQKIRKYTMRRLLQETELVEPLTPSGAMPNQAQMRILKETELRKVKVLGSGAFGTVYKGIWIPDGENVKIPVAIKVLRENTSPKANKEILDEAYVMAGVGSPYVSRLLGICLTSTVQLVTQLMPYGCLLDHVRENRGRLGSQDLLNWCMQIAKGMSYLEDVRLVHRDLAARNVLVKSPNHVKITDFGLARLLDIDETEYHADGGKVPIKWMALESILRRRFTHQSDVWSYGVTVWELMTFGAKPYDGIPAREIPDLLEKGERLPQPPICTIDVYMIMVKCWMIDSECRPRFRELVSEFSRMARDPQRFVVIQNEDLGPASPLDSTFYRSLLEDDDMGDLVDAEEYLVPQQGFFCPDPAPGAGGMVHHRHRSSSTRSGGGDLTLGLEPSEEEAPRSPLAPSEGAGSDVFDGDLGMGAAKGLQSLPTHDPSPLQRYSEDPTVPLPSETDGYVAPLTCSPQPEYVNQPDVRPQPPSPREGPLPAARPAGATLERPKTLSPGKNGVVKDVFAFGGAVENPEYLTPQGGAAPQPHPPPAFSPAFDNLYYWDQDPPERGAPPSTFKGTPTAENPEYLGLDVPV

| SMILES | IC50 (HER2 kinase) | IC50 (BT474 cells; [1]) | IC50 (HCC827 cells; Homo sapiens) | IC50 (EGFR kinase) | IC50 (BT474 cells; 72 h incubation) | IC50 (HCC827 cells) |
| --- | --- | --- | --- | --- | --- | --- |
| CN(C)C/C=C/C(=O)N1CCOc2c1ccc1ncnc(Nc3ccc(Oc4cccnc4)cc3)c21 [Example 54] | ≤ 50 nM | ≤ 50 nM | 500 to 5000 nM | 500 to 5000 nM | – | – |
| Cc1ccc(F)c(Oc2ccc(Nc3ncnc4ccc5c(c34)OCCN5C(=O)/C=C/CN(C)C)cc2)c1 [Example 71, (E)-4-(dimethylamino)-1-(10-((4-(2-fluoro-5-methylphenoxy)phenyl)amino)-2,3-dihydro-4H-[1,4]oxazino[2,3-f]quinazolin-4-yl)but-2-en-1-one] | ≤ 50 nM | ≤ 50 nM | 500 to 5000 nM | ≤ 50 nM | – | – |
| CN(C)C/C=C/C(=O)N1CCOc2c1ccc1ncnc(Nc3ccc(OCc4cccc(C(F)(F)F)c4)cc3)c21 [Example 62] | ≤ 50 nM | – | – | ≤ 50 nM | 50 to 500 nM | > 5000 nM |
| CN(C)C/C=C/C(=O)N1CCOc2c1ccc1ncnc(Nc3ccc(Oc4cc(Cl)ccc4F)cc3)c21 [Example 72, (E)-4-(dimethylamino)-1-(10-((4-(5-chloro-2-fluorophenoxy)phenyl)amino)-2,3-dihydro-4H-[1,4]oxazino[2,3-f]quinazolin-4-yl)but-2-en-1-one] | ≤ 50 nM | ≤ 50 nM | 50 to 500 nM | ≤ 50 nM | – | – |
| CN(C)C/C=C/C(=O)N1CCOc2c1ccc1ncnc(Nc3ccc(OCc4ccc(F)cc4)cc3)c21 [Example 60, (E)-4-(dimethylamino)-1-(10-((4-((4-fluorobenzyl)oxy)phenyl)amino)-2,3-dihydro-4H-[1,4]oxazino[2,3-f]quinazolin-4-yl)but-2-en-1-one] | ≤ 50 nM | ≤ 50 nM | 500 to 5000 nM | ≤ 50 nM | – | – |
| CN(C)C/C=C/C(=O)N1CCOc2c1ccc1ncnc(Nc3ccc(Oc4ccccc4F)cc3)c21 [Example 50, (E)-4-(dimethylamino)-1-(10-((4-(2-fluorophenoxy)phenyl)amino)-2,3-dihydro-4H-[1,4]oxazino[2,3-f]quinazolin-4-yl)but-2-en-1-one] | ≤ 50 nM | ≤ 50 nM | 500 to 5000 nM | ≤ 50 nM | – | – |
| CN(C)C/C=C/C(=O)N1CCOc2c1ccc1ncnc(Nc3ccc(Oc4cccc(F)c4)cc3)c21 [Example 49, (E)-4-(dimethylamino)-1-(10-((4-(3-fluorophenoxy)phenyl)amino)-2,3-dihydro-4H-[1,4]oxazino[2,3-f]quinazolin-4-yl)but-2-en-1-one] | ≤ 50 nM | ≤ 50 nM | 50 to 500 nM | ≤ 50 nM | – | – |
| CN(C)C/C=C/C(=O)N1CCOc2c1ccc1ncnc(Nc3ccc(Oc4ccccc4)cc3)c21 [Example 44, (E)-4-(dimethylamino)-1-(10-((4-phenoxyphenyl)amino)-2,3-dihydro-4H-[1,4]oxazino[2,3-f]quinazolin-4-yl)but-2-en-1-one] | ≤ 50 nM | ≤ 50 nM | 500 to 5000 nM | ≤ 50 nM | – | – |
| COc1ccccc1Oc1ccc(Nc2ncnc3ccc4c(c23)OCCN4C(=O)/C=C/CN(C)C)cc1 [Example 53, (E)-4-(dimethylamino)-1-(10-((4-(2-methoxyphenoxy)phenyl)amino)-2,3-dihydro-4H-[1,4]oxazino[2,3-f]quinazolin-4-yl)but-2-en-1-one] | ≤ 50 nM | ≤ 50 nM | 500 to 5000 nM | ≤ 50 nM | – | – |
| CC(Oc1ccc(Nc2ncnc3ccc4c(c23)OCCN4C(=O)/C=C/CN(C)C)cc1)c1cccc(F)c1 (centres unmarked) [Example 74, (E)-4-(dimethylamino)-1-(10-((4-(1-(3-fluorophenyl)ethoxy)phenyl)amino)-2,3-dihydro-4H-[1,4]oxazino[2,3-f]quinazolin-4-yl)but-2-en-1-one] | ≤ 50 nM | ≤ 50 nM | 500 to 5000 nM | 50 to 500 nM | – | – |

Results, then the compound that gave them:

| IC50 (HER2 kinase) | IC50 (BT474 cells; [1]) | IC50 (HCC827 cells; Homo sapiens) | IC50 (EGFR kinase) | IC50 (BT474 cells; 72 h incubation) | IC50 (HCC827 cells) | SMILES |
| --- | --- | --- | --- | --- | --- | --- |
| ≤ 50 nM | ≤ 50 nM | 500 to 5000 nM | ≤ 50 nM | – | – | O=C(/C=C/CN1CCCC1)N1CCOc2c1ccc1ncnc(Nc3ccc(Oc4ccccc4)cc3)c21 [Example 91, (E)-1-(10-((4-phenoxyphenyl)amino)-2,3-dihydro-4H-[1,4]oxazino[2,3-f]quinazolin-4-yl)-4-(pyrrolidin-1-yl)but-2-en-1-one] |
| ≤ 50 nM | ≤ 50 nM | 500 to 5000 nM | ≤ 50 nM | – | – | CC(C)N(C)C/C=C/C(=O)N1CCOc2c1ccc1ncnc(Nc3ccc(OCc4ccccn4)c(Cl)c3)c21 [Example 111, (E)-1-(10-((3-chloro-4-(pyridin-2-ylmethoxy)phenyl)amino)-2,3-dihydro-4H-[1,4]oxazino[2,3-f]quinazolin-4-yl)-4-(isopropyl(methyl)amino)but-2-en-1-one] |
| ≤ 50 nM | ≤ 50 nM | 500 to 5000 nM | ≤ 50 nM | – | – | CN(C)C/C=C/C(=O)N1CCOc2c1ccc1ncnc(Nc3ccc(Oc4ccccc4)c(Cl)c3)c21 [Example 59, (E)-4-(dimethylamino)-1-(10-((3-chloro-4-phenoxyphenyl)amino)-2,3-dihydro-4H-[1,4]oxazino[2,3-f]quinazolin-4-yl)but-2-en-1-one] |
| ≤ 50 nM | ≤ 50 nM | 50 to 500 nM | ≤ 50 nM | – | – | CN(C/C=C/C(=O)N1CCOc2c1ccc1ncnc(Nc3ccc(OCc4ccccn4)c(Cl)c3)c21)C1CCC1 [Example 110, (E)-1-(10-((3-chloro-4-(pyridin-2-ylmethoxy)phenyl)amino)-2,3-dihydro-4H-[1,4]oxazino[2,3-f]quinazolin-4-yl)-4-(cyclobutyl(methyl)amino)but-2-en-1-one] |
| ≤ 50 nM | ≤ 50 nM | 50 to 500 nM | ≤ 50 nM | – | – | O=C(/C=C/CN1CCCC1)N1CCOc2c1ccc1ncnc(Nc3ccc(OCc4ccccn4)c(Cl)c3)c21 [Example 106, (E)-1-(10-((3-chloro-4-(pyridin-2-ylmethoxy)phenyl)amino)-2,3-dihydro-4H-[1,4]oxazino[2,3-f]quinazolin-4-yl)-4-(pyrrolidin-1-yl)but-2-en-1-one] |
| ≤ 50 nM | ≤ 50 nM | 50 to 500 nM | ≤ 50 nM | – | – | CN(C)C/C=C/C(=O)N1CCOc2c1ccc1ncnc(Nc3ccc(OCc4ccccn4)c(Cl)c3)c21 [Example 46, (E)-1-(10-((3-chloro-4-(pyridin-2-ylmethoxy)phenyl)amino)-2,3-dihydro-4H-[1,4]oxazino[2,3-f]quinazolin-4-yl)-4-(dimethylamino)but-2-en-1-one] |
| ≤ 50 nM | ≤ 50 nM | 500 to 5000 nM | ≤ 50 nM | – | – | CN(C)C/C=C/C(=O)N1CCOc2c1ccc1ncnc(Nc3ccc(OCc4cccc(Cl)c4)cc3)c21 [Example 83, (E)-1-(10-((4-((3-chlorobenzyl)oxy)phenyl)amino)-2,3-dihydro-4H-[1,4]oxazino[2,3-f]quinazolin-4-yl)-4-(dimethylamino)but-2-en-1-one] |
| ≤ 50 nM | ≤ 50 nM | 50 to 500 nM | ≤ 50 nM | – | – | CC(=O)N1CCN(C/C=C/C(=O)N2CCOc3c2ccc2ncnc(Nc4ccc(OCc5ccccn5)c(Cl)c4)c32)CC1 [Example 108, (E)-4-(4-acetylpiperazin-1-yl)-1-(10-((3-chloro-4-(pyridin-2-ylmethoxy)phenyl)amino)-2,3-dihydro-4H-[1,4]oxazino[2,3-f]quinazolin-4-yl)but-2-en-1-one] |
| ≤ 50 nM | ≤ 50 nM | 50 to 500 nM | ≤ 50 nM | – | – | CN1CCN(C/C=C/C(=O)N2CCOc3c2ccc2ncnc(Nc4ccc(OCc5ccccn5)c(Cl)c4)c32)CC1 [Example 104, (E)-1-(10-((3-chloro-4-(pyridin-2-ylmethoxy)phenyl)amino)-2,3-dihydro-4H-[1,4]oxazino[2,3-f]quinazolin-4-yl)-4-(4-methylpiperazin-1-yl)but-2-en-1-one] |
| ≤ 50 nM | ≤ 50 nM | 50 to 500 nM | ≤ 50 nM | – | – | CCN(CC)C/C=C/C(=O)N1CCOc2c1ccc1ncnc(Nc3ccc(OCc4ccccn4)c(Cl)c3)c21 [Example 105, (E)-1-(10-((3-chloro-4-(pyridin-2-ylmethoxy)phenyl)amino)-2,3-dihydro-4H-[1,4]oxazino[2,3-f]quinazolin-4-yl)-4-(diethylamino)but-2-en-1-one] |
